Reference: patent US20020197244A1, “Compositions and methods for regulating phagocytosis and ICAM-1 expression” (priority 1998, published 2002)

Legend:
Format in all cases: cell-based
Human PMN cells = assay: PMN chemotactic migration towards FMLP, Boyden chamber
Description: Since ICAM-1 is involved in cell migration, cell migration towards a chemotactic peptide was studied in cells treated with Compound I and STI. Human PMN cells were placed in one side of a Boyden chamber, using standard techniques, and a chemotactic peptide (FMLP) was placed in the other chamber. Cells were allowed to migrate into the second chamber, and the number of migrating cells per field and distance of migration were calculated. The experiment was repeated with PMN cells pretreated with one of the following: 5 or 0.5 mg/ml STI, 1 or 0.1 μM Compound I, a buffer vehicle, and with and without chemotactic peptide. The number of cells per field that migrated the same distance as the untreated control was measured. Without the peptide and with no treatment, an average of 19 cells/field were migrating a distance of 80 microns. […] In other words, no cells (or less than 5/field) were identified at 115 microns. […] The ability to inhibit PMN migration is an important constituent of anti-inflammatory compounds.

[1] = tested on: monolayer keratinocyte/melanocyte co-cultures; assay: Pigmentation in monolayer keratinocyte/melanocyte co-cultures (K-M contact); conditions: keratinocyte-melanocyte contact
Description: (§1) Since PAR-2 is expressed in keratinocytes, but not in melanocytes, the possible requirement of keratinocyte-melanocyte contact was tested for the effect of Compound I and SLIGRL on melanosome phagocytosis by the keratinocytes. Primary melanocyte cultures (commercially available from Clonetics, San Diego) were plated under epidermal equivalents (EpiDerm, of MatTek, Ashland, Mass.) to create an equivalent-monolayer co-culture with no contact between keratinocytes and melanocytes. These co-cultures were compared to MelanoDerm equivalents (of MatTek), where melanocytes are present in the basal layer of the equivalent. Cultures were treated with Compound I, with the […], and with the PAR-2 agonist SLIGRL. As set forth in Table 3, keratinocytes are indicated by “K”, melanocytes are indicated by “M”, and lack of keratinocyte-melanocyte contact is indicated as “no K-M cont”. […] The same result was also observed with monolayer keratinocyte/melanocyte co-cultures having keratinocyte/melanocyte contact.

[2] = tested on: melanocyte cultures plated under epidermal equivalents (EpiDerm); assay: Pigmentation in equivalent-monolayer co-culture (no K-M contact); conditions: no keratinocyte-melanocyte contact
Description: as §1

MelanoDerm equivalents = assay: Pigmentation in melanocyte-containing epidermal equivalents; conditions: keratinocyte-melanocyte contact
Description: as §1

Question: With FMLP [reference compound] as the substance, how does the “Migration (distance)” value (Human PMN cells; buffer without peptide: 80 μ) read?
Answer: 115 μ

Question: What about the Cells/Field (Human PMN cells; cells counted at 115 microns, PMN pretreated with 5 or 0.5 mg/ml STI or 1 or 0.1 μM Compound I, buffer without FMLP: 19 at 80 μ) of the same substance?
Answer: 41 cells/field

Question: Which results are given for TFLLRNPNDK [printed as PAR-2 agonist]?
Answer: level of pigmentation, Mono-Layer Co-Cultures (K-M cont.) [1]: no effect; level of pigmentation, Equivalent Monolayer Co-culture (no K-M cont.) [2]: no effect; level of pigmentation, Epidermal Equivalents (K-M cont.) (MelanoDerm equivalents): no effect
